Data published in the supplement of paper PMC8671470.
± gives the standard deviation of the averaged measurements.

What was measured:
HL-60 [1] = assay: area under dose-response curve (viability, 1 nM-10 uM) (fraction (0-1)); higher = more sensitive; conditions: 72 h
How it was run: (§1)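 Area under the curve, where listed, was derived from four-parameter log-logistic fits with drc and PharmacoGx. These fits used CellTiter-Glo viability from HL-60 cells in RPMI 1640 with 10% FBS, normalised to DMSO wells and wells holding 10 μM proteasome inhibitor. The full library was rescreened on 384-well plates in duplicate at five tenfold concentrations, 1–10,000 nM, with DMSO or 100 nM of one of three metabolic inhibitors, for 72 h at 37 °C, 5% CO2.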

HL-60 [2] = assay: cell viability (% survival relative to DMSO control); higher = less cytotoxic; conditions: 72 h
How it was run: as §1

[3] = co-treatment: GSK2194069 100 nM
[4] = co-treatment: pictilisib 100 nM
[5] = 0.001 µM, co-treatment: AZD3965 100 nM
[6] = 0.001 µM, co-treatment: DMSO vehicle
[7] = 0.001 µM, co-treatment: GSK2194069 100 nM
[8] = 0.001 µM, co-treatment: pictilisib 100 nM
[9] = 0.01 µM, co-treatment: AZD3965 100 nM
[10] = 0.01 µM, co-treatment: DMSO vehicle
[11] = 0.01 µM, co-treatment: GSK2194069 100 nM
[12] = 0.01 µM, co-treatment: pictilisib 100 nM
[13] = 0.1 µM, co-treatment: AZD3965 100 nM
[14] = 0.1 µM, co-treatment: DMSO vehicle
[15] = 0.1 µM, co-treatment: GSK2194069 100 nM
[16] = 0.1 µM, co-treatment: pictilisib 100 nM
[17] = 1 µM, co-treatment: AZD3965 100 nM
[18] = 1 µM, co-treatment: DMSO vehicle
[19] = 1 µM, co-treatment: GSK2194069 100 nM
[20] = 1 µM, co-treatment: pictilisib 100 nM
[21] = 10 µM, co-treatment: AZD3965 100 nM
[22] = 10 µM, co-treatment: DMSO vehicle
[23] = 10 µM, co-treatment: GSK2194069 100 nM
[24] = 10 µM, co-treatment: pictilisib 100 nM

Structure (SMILES)	area under dose-response curve (HL-60 [1]; co-treatment: AZD3965 100 nM)	area under dose-response curve (HL-60 [1]; co-treatment: DMSO vehicle)	area under dose-response curve (HL-60 [1]; [3])	area under dose-response curve (HL-60 [1]; [4])	cell viability (HL-60 [2]; [5])	cell viability (HL-60 [2]; [6])	cell viability (HL-60 [2]; [7])	cell viability (HL-60 [2]; [8])	cell viability (HL-60 [2]; [9])	cell viability (HL-60 [2]; [10])	cell viability (HL-60 [2]; [11])	cell viability (HL-60 [2]; [12])	cell viability (HL-60 [2]; [13])	cell viability (HL-60 [2]; [14])	cell viability (HL-60 [2]; [15])	cell viability (HL-60 [2]; [16])	cell viability (HL-60 [2]; [17])	cell viability (HL-60 [2]; [18])	cell viability (HL-60 [2]; [19])	cell viability (HL-60 [2]; [20])	cell viability (HL-60 [2]; [21])	cell viability (HL-60 [2]; [22])	cell viability (HL-60 [2]; [23])	cell viability (HL-60 [2]; [24])
CN(C)C(=O)n1nnnc1Cc1ccc(-c2ccccc2)cc1	0.113	0.116	0.108	0.116	91.3 ± 21%	97.5 ± 6%	101 ± 18%	96.2 ± 1.6%	99.6 ± 3.9%	99.54 ± 0.76%	96.8 ± 5.8%	93.4 ± 2.5%	103 ± 4.8%	101 ± 2.4%	104 ± 1.8%	100 ± 1.6%	105 ± 0.8%	101.1 ± 0.28%	109 ± 14%	104 ± 2.9%	6.18 ± 1.4%	6.81 ± 0.78%	6.62 ± 1.1%	5 ± 0.78%
Cc1[nH]n(-c2ccccc2)c(=O)c1C1(C(F)(F)F)C(=O)N(c2ccccc2)C2=C1C(=O)CC(C)(C)C2 (stereo unspecified)	< 0.0301	< 0.0301	< 0.0301	< 0.0301	101.7 ± 0.96%	99.8 ± 1.2%	98.536 ± 0.016%	97.2 ± 3.1%	100.9 ± 0.63%	100 ± 1.6%	106 ± 5%	95.5 ± 1%	107 ± 1.1%	102 ± 4.3%	105 ± 1.4%	101 ± 2.9%	98.5 ± 2.6%	102 ± 1.6%	100.4 ± 0.11%	102 ± 8.8%	102 ± 9.5%	102 ± 3.6%	97.8 ± 4.5%	104 ± 3%
c1ccc2nc(-c3nnc4sc(-c5cnccn5)nn34)ccc2c1	< 0.0301	< 0.0301	< 0.0301	< 0.0301	98.9 ± 0.82%	97.4 ± 1.7%	102 ± 7.4%	105 ± 5.6%	98.75 ± 0.27%	100 ± 1.4%	101 ± 5%	103 ± 4.5%	100.9 ± 0.44%	98.61 ± 0.72%	100 ± 5.6%	103 ± 8.9%	98.9 ± 3.1%	98 ± 1.4%	93.01 ± 0.7%	107 ± 5.1%	98.4 ± 2%	102 ± 2.2%	95.9 ± 5.9%	100.1 ± 0.31%
CC(C)(CS(=O)(=O)[O-])NC(=O)CC[N+](C)(C)CCO	< 0.0301	< 0.0301	< 0.0301	< 0.0301	101 ± 5.7%	95.9 ± 6.8%	105 ± 11%	102 ± 6.8%	89.5 ± 25%	98.4 ± 11%	95.2 ± 10%	79.9 ± 30%	116 ± 26%	107.3 ± 0.43%	102 ± 1.7%	107 ± 5%	122 ± 30%	106 ± 3.5%	111 ± 12%	115 ± 23%	94.1 ± 3.8%	100 ± 1.9%	99.7 ± 2.9%	99.9 ± 7.4%
C[C@H]1O[C@H](O[C@H]2[C@H](O)[C@@H](O)[C@@H](O[C@H]3[C@H](O)[C@@H](O)C(O)O[C@@H]3CO)O[C@@H]2CO)[C@H](O)[C@@H](O)[C@@H]1N[C@H]1C=C(CO)[C@@H](O)[C@H](O)[C@H]1O (mixture of isomers) [Acarbose]	< 0.0301	< 0.0301	< 0.0301	< 0.0301	112.2 ± 0.44%	100.2 ± 1%	108.6 ± 0.84%	105 ± 15%	96.77 ± 0.55%	98.3 ± 3.1%	98.7 ± 7.9%	104 ± 10%	99 ± 1.9%	102 ± 3.2%	97.7 ± 2.8%	101 ± 5.1%	99.3 ± 1%	104 ± 1.1%	92.59 ± 0.43%	96.9 ± 3.6%	88.1 ± 3.5%	97.771 ± 0.0011%	97.3 ± 3%	102.6 ± 0.5%
CC(=O)N1CCN(c2ccc(OC[C@@H]3CO[C@@](Cn4ccnc4)(c4ccc(Cl)cc4Cl)O3)cc2)CC1 (racemic) [Ketoconazole]	< 0.0301	< 0.0301	< 0.0301	< 0.0301	98.3 ± 5%	99.7 ± 1.4%	100 ± 3.6%	88.8 ± 17%	95.6 ± 8.3%	96.9 ± 3.1%	78.8 ± 21%	95.03 ± 0.18%	105 ± 4.2%	104 ± 3%	109 ± 12%	106 ± 18%	109 ± 11%	104 ± 0.52%	110 ± 14%	111 ± 10%	96.1 ± 8.6%	102.6 ± 0.17%	95.6 ± 2.4%	102 ± 1.4%
OC[C@H]1OC(O)C[C@@H](O)[C@@H]1O (stereo partly specified) [2-deoxyglucose]	< 0.0301	< 0.0301	< 0.0301	< 0.0301	107 ± 5.6%	104 ± 3%	102 ± 4.2%	102 ± 5.7%	110 ± 2.7%	101 ± 8.1%	107 ± 8%	109.7 ± 0.56%	103 ± 3.9%	99.45 ± 0.1%	102 ± 5.5%	99.6 ± 1.3%	103.1 ± 0.65%	103.5 ± 0.84%	101 ± 5%	104 ± 1.2%	103 ± 3.5%	97.27 ± 0.73%	104 ± 6.3%	108 ± 14%
O=C(C(=O)c1ccc(Br)cc1)c1ccc(Br)cc1 [4,4'-Dibromobenzil]	< 0.0301	< 0.0301	< 0.0301	< 0.0301	105 ± 1.5%	102 ± 7.3%	105 ± 3%	109 ± 6.4%	105 ± 4.3%	100 ± 2.6%	107.3 ± 0.49%	105 ± 1.2%	99.5 ± 2.2%	99.8 ± 1.4%	105.4 ± 0.27%	95.5 ± 13%	94.7 ± 14%	96.7 ± 0.99%	98.1 ± 5.3%	98.3 ± 17%	102 ± 3.9%	101 ± 1.3%	96.28 ± 0.88%	101.7 ± 0.5%
NS(=O)(=O)c1ccc(NC(=O)Cc2ccccc2)cc1 [4-(2-Phenylacetamido)Benzenesulfonamide]	< 0.0301	< 0.0301	< 0.0301	< 0.0301	97.2 ± 2.5%	92.5 ± 3.3%	104 ± 13%	101 ± 1.3%	100 ± 1.7%	94.4 ± 3%	99.5 ± 13%	85.2 ± 6.6%	99.29 ± 0.26%	100 ± 3.6%	99.14 ± 0.66%	94 ± 7%	101 ± 3.1%	100 ± 2.9%	99.4 ± 2.3%	97.6 ± 1.9%	99.6 ± 2.4%	98.28 ± 0.14%	103 ± 1.3%	92.9 ± 7.5%
NCc1ccc(S(N)(=O)=O)cc1 [4-Homosulfanilamide]	< 0.0301	< 0.0301	< 0.0301	< 0.0301	102 ± 3.3%	103.6 ± 0.27%	101 ± 4.4%	98.6 ± 3.8%	106 ± 5.2%	105 ± 4.4%	103 ± 6.2%	107 ± 3.1%	99.06 ± 0.68%	100 ± 3.1%	98.5 ± 5.5%	97.5 ± 1.2%	95.9 ± 1.2%	101 ± 2.8%	96.9 ± 4.6%	95.5 ± 8.2%	99.2 ± 4.8%	96.4 ± 2%	97.5 ± 5.8%	98.3 ± 6.2%
NCc1ccc(-c2cccnc2)s1 [(5-Pyrid-3-YLTHIEN-2-YL)METHYLAMINE]	< 0.0301	< 0.0301	< 0.0301	< 0.0301	103 ± 3.5%	103 ± 1.9%	105 ± 2.2%	104 ± 11%	78 ± 37%	101 ± 5.8%	94.3 ± 13%	91.2 ± 27%	114 ± 1.4%	109 ± 2.6%	107.2 ± 0.96%	113 ± 2.4%	97 ± 1%	92.7 ± 13%	95.1 ± 2.1%	92.2 ± 5.2%	101 ± 1.1%	98.43 ± 0.59%	96.7 ± 4.5%	96.9 ± 2.8%
CC(=O)N[C@@H](CS)C(=O)O [Acetylcysteine]	< 0.0301	< 0.0301	< 0.0301	< 0.0301	99.1 ± 8%	94.2 ± 10%	97.8 ± 8.2%	103 ± 9.8%	99.8 ± 1.2%	101.13 ± 0.024%	103 ± 1.7%	101.2 ± 0.78%	105 ± 6.2%	104 ± 5.7%	106 ± 5.4%	106 ± 1.6%	102 ± 6.2%	96.1 ± 8.7%	101 ± 4.8%	101 ± 7.9%	91.6 ± 1%	93.7 ± 4.5%	91.4 ± 4.3%	86.3 ± 9.3%
CCCCC/C=C\C/C=C\C/C=C\C/C=C\CCCC(=O)C(F)(F)F [Arachidonyl trifluoromethyl ketone]	< 0.0301	< 0.0301	0.0624	< 0.0301	101 ± 1.4%	96.7 ± 2.5%	88.4 ± 31%	99.6 ± 20%	104 ± 4.1%	102 ± 8.7%	101 ± 2.3%	104 ± 7%	101 ± 5.3%	101 ± 3.3%	108 ± 11%	102 ± 9.9%	91.8 ± 20%	101 ± 7.4%	89.7 ± 8.5%	81.4 ± 45%	98.3 ± 6.5%	101 ± 1.2%	56.72 ± 0.35%	96.6 ± 9.5%
O=[As]O[As]=O (stereo unspecified) [Arsenic trioxide]	< 0.0301	< 0.0301	< 0.0301	< 0.0301	103 ± 2.1%	98.8 ± 1.9%	102 ± 5.6%	94.24 ± 0.0034%	101.5 ± 0.8%	100 ± 1.3%	99.1 ± 4.6%	101 ± 4.8%	98.7 ± 1.7%	97.29 ± 0.59%	98.8 ± 2.5%	93.6 ± 4.6%	102 ± 4%	100.5 ± 0.47%	99.11 ± 0.97%	98.5 ± 6.7%	82.7 ± 1.2%	96.7 ± 6.6%	87.09 ± 0.7%	63.4 ± 0.69%
CCCC(CCC)C(=O)O [Valproic acid]	–	–	–	–	101.96 ± 0.094%	102 ± 4.8%	95.2 ± 3%	98.6 ± 5.1%	103 ± 2.8%	99.9 ± 6%	106 ± 14%	101 ± 8.1%	94.7 ± 4.1%	98.5 ± 2.7%	98.1 ± 1.8%	95 ± 1.9%	97.8 ± 5.3%	96.68 ± 0.64%	93.9 ± 13%	89.6 ± 5.2%	106 ± 7.5%	105 ± 4.8%	106 ± 4.2%	101 ± 6.5%
OCC(CO)N[C@H]1C[C@](O)(CO)[C@@H](O)[C@H](O)[C@H]1O [Voglibose]	–	–	–	–	96.2 ± 11%	99.5 ± 2.6%	104 ± 19%	113 ± 7.6%	103 ± 2.7%	99.9 ± 7%	104 ± 7.5%	112 ± 7.8%	100 ± 4.9%	100 ± 5.8%	104 ± 3.5%	106 ± 12%	96.5 ± 4.9%	99.4 ± 2.4%	79.9 ± 24%	81.9 ± 38%	93.58 ± 0.69%	99.5 ± 1.4%	97.3 ± 1.8%	99.1 ± 1.8%
